# Data published in patent US20260053811A1, “METHODS OF TREATING HYPERTENSION IN OBESE SUBJECTS” (Mineralys Therapeutics, Inc., priority 2022, published 2026).
# Where two headings read alike, the source gives them in different places.
# Legend:
# [1] = Pharmacokinetics (plasma Cmax, AUC, Tmax, t1/2, trough concentrations); format: in vivo, human; details: for Trough Plasma Concentration, Median / concentration at 7 day: Day 7; for concentration at 7 day / concentration at 28 day / concentration at 56 day / AUC(0-t) / Cmax / Tmax: human, plasma, oral; for concentration at 56 day: Day 56; for Tmax: read-out: Tmax, Median
# Description: Pharmacokinetic endpoints of this study are PK parameters, including, of area under the plasma concentration versus time curve (AUC), maximum plasma concentration (Cmax), time to maximum concentration (Tmax), and half-life (t1/2) will be summarized descriptively for Randomization (baseline) and Study Weeks 1, 4, and 8
# PK/PD Analysis Set includes all subjects in the SAF who have sufficient data available for the analysis of pharmacokinetic and pharmacodynamic measurements. In the analyses based on PKPD, subjects will be analyzed according to the actual treatment received.
# hypertensive subjects = test: Clinical laboratory evaluations (chemistry incl. serum creatinine, hematology, coagulation, urinalysis); format: in vivo, human
# Description: Safety endpoints of this study are: • (a) Incidence and severity of all spontaneously reported adverse events (AEs) • (b) Changes in vital signs (standing SBP, standing DBP, body temperature, heart rate, and respiratory rate) • (c) Changes in electrocardiogram parameters (including cardiac intervals: PR, QRS, QT, and corrected QT interval using Fridericia's formula) • (d) Changes in clinical laboratory assessments (hematology, chemistry, coagulation, and urinalysis) • (e) Change in office-measured SBP from Study Week 8 (end-of-treatment period to end of follow up (i.e. end of Study Week 12 for Part 1 and end of Study 10 for Part 2).
# [2] = 12.5 mg, 12.5 mg BID, read-out: Trough Plasma Concentration, Mean (SD)
# [3] = 12.5 mg, 12.5 mg QD, read-out: Trough Plasma Concentration, Mean (SD)
# [4] = 25 mg, 25 mg BID, read-out: Trough Plasma Concentration, Mean (SD)
# [5] = 50 mg, 50 mg QD, read-out: Trough Plasma Concentration, Mean (SD)
# [6] = 100 mg, 100 mg QD Part 1, read-out: Trough Plasma Concentration, Mean (SD)
# [7] = 100 mg, 100 mg QD Part 1, read-out: Trough Plasma Concentration, Median
# [8] = 100 mg, 100 mg QD Part 2, read-out: Trough Plasma Concentration, Mean (SD)
# [9] = 100 mg, 100 mg QD Part 2, read-out: Trough Plasma Concentration, Median
# [10] = steady state Day 28, 12.5 mg BID
smiles,measurement,setting,value
CC(=O)N[C@H]1CC[C@H](NC(=O)CN2CCN(c3nncc(-c4ccc(C)cc4)n3)CC2)CC1 [Compound A HBr],"Trough Plasma Concentration, Median",[1]; 12.5 mg BID,26.1 ng/mL
same,"Trough Plasma Concentration, Median",[1]; 12.5 mg QD,5.52 ng/mL
same,"Trough Plasma Concentration, Median",[1]; 25 mg BID,52 ng/mL
same,"Trough Plasma Concentration, Median",[1]; 50 mg QD,12.1 ng/mL
same,concentration at 7 day,[1]; [2],52.3 ng/mL
same,concentration at 7 day,[1]; [3],11.6 ng/mL
same,concentration at 28 day,"[1]; 12.5 mg, Day 28, 12.5 mg BID, read-out: Trough Plasma Concentration, Geo Mean",10.7 ng/mL
same,concentration at 28 day,"[1]; 12.5 mg, Day 28, 12.5 mg BID, read-out: Trough Plasma Concentration, Mean (SD)",33.4 ng/mL
same,concentration at 28 day,"[1]; 12.5 mg, Day 28, 12.5 mg BID, read-out: Trough Plasma Concentration, Median",27.3 ng/mL
same,concentration at 28 day,"[1]; 12.5 mg, Day 28, 12.5 mg QD, read-out: Trough Plasma Concentration, Geo Mean",5.77 ng/mL
same,concentration at 28 day,"[1]; 12.5 mg, Day 28, 12.5 mg QD, read-out: Trough Plasma Concentration, Mean (SD)",7.91 ng/mL
same,concentration at 28 day,"[1]; 12.5 mg, Day 28, 12.5 mg QD, read-out: Trough Plasma Concentration, Median",4.1 ng/mL
same,concentration at 56 day,"[1]; 12.5 mg, 12.5 mg BID, read-out: Trough Plasma Concentration, Geometric Mean",18.5 ng/mL
same,concentration at 56 day,[1]; [2],40.4 ng/mL
same,concentration at 56 day,"[1]; 12.5 mg, 12.5 mg BID, read-out: Trough Plasma Concentration, Median",21.6 ng/mL
same,concentration at 56 day,"[1]; 12.5 mg, 12.5 mg QD, read-out: Trough Plasma Concentration, Geometric Mean",22.1 ng/mL
same,concentration at 56 day,[1]; [3],39.9 ng/mL
same,concentration at 56 day,"[1]; 12.5 mg, 12.5 mg QD, read-out: Trough Plasma Concentration, Median",7.6 ng/mL
same,AUC(0-t),"[1]; 12.5 mg, steady state Day 28, 12.5 mg BID, read-out: AUC0-24, Geo Mean",940 ng·h/mL
same,AUC(0-t),"[1]; 12.5 mg, steady state Day 28, 12.5 mg BID, read-out: AUC0-24, Mean (SD)",992 ng·h/mL
same,AUC(0-t),"[1]; 12.5 mg, steady state Day 28, 12.5 mg BID, read-out: AUC0-24, Median",922 ng·h/mL
same,Cmax,"[1]; 12.5 mg, steady state Day 28, 12.5 mg BID, read-out: Cmax, Median",137 ng/mL
same,AUC(0-t),"[1]; 12.5 mg, steady state Day 28, 12.5 mg QD, read-out: AUC0-24, Geo Mean",726 ng·h/mL
same,AUC(0-t),"[1]; 12.5 mg, steady state Day 28, 12.5 mg QD, read-out: AUC0-24, Mean (SD)",1020 ng·h/mL
same,AUC(0-t),"[1]; 12.5 mg, steady state Day 28, 12.5 mg QD, read-out: AUC0-24, Median",498 ng·h/mL
same,Cmax,"[1]; 12.5 mg, steady state Day 28, 12.5 mg QD, read-out: Cmax, Geo Mean",120 ng/mL
same,Cmax,"[1]; 12.5 mg, steady state Day 28, 12.5 mg QD, read-out: Cmax, Mean (SD)",153 ng/mL
same,Cmax,"[1]; 12.5 mg, steady state Day 28, 12.5 mg QD, read-out: Cmax, Median",94.9 ng/mL
same,concentration at 7 day,[1]; [4],94.2 ng/mL
same,concentration at 28 day,"[1]; 25 mg, Day 28, 25 mg BID, read-out: Trough Plasma Concentration, Geo Mean",62.1 ng/mL
same,concentration at 28 day,"[1]; 25 mg, Day 28, 25 mg BID, read-out: Trough Plasma Concentration, Mean (SD)",109 ng/mL
same,concentration at 28 day,"[1]; 25 mg, Day 28, 25 mg BID, read-out: Trough Plasma Concentration, Median",56.3 ng/mL
same,concentration at 56 day,"[1]; 25 mg, 25 mg BID, read-out: Trough Plasma Concentration, Geometric Mean",46 ng/mL
same,concentration at 56 day,[1]; [4],104 ng/mL
same,concentration at 56 day,"[1]; 25 mg, 25 mg BID, read-out: Trough Plasma Concentration, Median",32.3 ng/mL
same,AUC(0-t),"[1]; 25 mg, steady state Day 28, 25 mg BID, read-out: AUC0-24, Geo Mean",1640 ng·h/mL
same,AUC(0-t),"[1]; 25 mg, steady state Day 28, 25 mg BID, read-out: AUC0-24, Mean (SD)",1760 ng·h/mL
same,AUC(0-t),"[1]; 25 mg, steady state Day 28, 25 mg BID, read-out: AUC0-24, Median",1670 ng·h/mL
same,Cmax,"[1]; 25 mg, steady state Day 28, 25 mg BID, read-out: Cmax, Geo Mean",325 ng/mL
same,Cmax,"[1]; 25 mg, steady state Day 28, 25 mg BID, read-out: Cmax, Median",335 ng/mL
same,concentration at 7 day,[1]; [5],93.1 ng/mL
same,concentration at 28 day,"[1]; 50 mg, Day 28, 50 mg QD, read-out: Trough Plasma Concentration, Geo Mean",46.8 ng/mL
same,concentration at 28 day,"[1]; 50 mg, Day 28, 50 mg QD, read-out: Trough Plasma Concentration, Mean (SD)",87.4 ng/mL
same,concentration at 28 day,"[1]; 50 mg, Day 28, 50 mg QD, read-out: Trough Plasma Concentration, Median",20.9 ng/mL
same,concentration at 56 day,"[1]; 50 mg, 50 mg QD, read-out: Trough Plasma Concentration, Geometric Mean",38.1 ng/mL
same,concentration at 56 day,[1]; [5],155 ng/mL
same,concentration at 56 day,"[1]; 50 mg, 50 mg QD, read-out: Trough Plasma Concentration, Median",18 ng/mL
same,AUC(0-t),"[1]; 50 mg, steady state Day 28, 50 mg QD, read-out: AUC0-24, Geo Mean",3230 ng·h/mL
same,AUC(0-t),"[1]; 50 mg, steady state Day 28, 50 mg QD, read-out: AUC0-24, Mean (SD)",3390 ng·h/mL
same,AUC(0-t),"[1]; 50 mg, steady state Day 28, 50 mg QD, read-out: AUC0-24, Median",3320 ng·h/mL
same,Cmax,"[1]; 50 mg, steady state Day 28, 50 mg QD, read-out: Cmax, Geo Mean",477 ng/mL
same,Cmax,"[1]; 50 mg, steady state Day 28, 50 mg QD, read-out: Cmax, Mean (SD)",518 ng/mL
same,Cmax,"[1]; 50 mg, steady state Day 28, 50 mg QD, read-out: Cmax, Median",488 ng/mL
same,AUC(0-t),"[1]; 100 mg, 100 mg QD, Cohort 1, Day 28, read-out: Steady-state AUC0-24",14900 ng·h/mL
same,Cmax,"[1]; 100 mg, 100 mg QD, Cohort 1, Day 28, read-out: Steady-state Cmax",1620 ng/mL
same,AUC(0-t),"[1]; 100 mg, 100 mg QD, Cohort 2, Day 28, read-out: Steady-state AUC0-24",7480 ng·h/mL
same,Cmax,"[1]; 100 mg, 100 mg QD, Cohort 2, Day 28, read-out: Steady-state Cmax",1360 ng/mL
same,AUC(0-t),"[1]; 100 mg, 100 mg QD, Day 28, read-out: Steady-state AUC0-24, mean of Cohort 1 and Cohort 2",~11200 ng·h/mL
same,Cmax,"[1]; 100 mg, 100 mg QD, Day 28, read-out: Steady-state Cmax, mean of Cohort 1 and Cohort 2",~1490 ng/mL
same,concentration at 7 day,[1]; [6],299 ng/mL
same,concentration at 7 day,[1]; [7],28.2 ng/mL
same,concentration at 7 day,[1]; [8],151 ng/mL
same,concentration at 7 day,[1]; [9],29.8 ng/mL
same,concentration at 28 day,"[1]; 100 mg, Day 28, 100 mg QD Part 1, read-out: Trough Plasma Concentration, Geo Mean",50.7 ng/mL
same,concentration at 28 day,"[1]; 100 mg, Day 28, 100 mg QD Part 1, read-out: Trough Plasma Concentration, Mean (SD)",303 ng/mL
same,concentration at 28 day,"[1]; 100 mg, Day 28, 100 mg QD Part 1, read-out: Trough Plasma Concentration, Median",38.6 ng/mL
same,concentration at 28 day,"[1]; 100 mg, Day 28, 100 mg QD Part 2, read-out: Trough Plasma Concentration, Geo Mean",12.9 ng/mL
same,concentration at 28 day,"[1]; 100 mg, Day 28, 100 mg QD Part 2, read-out: Trough Plasma Concentration, Mean (SD)",26.4 ng/mL
same,concentration at 28 day,"[1]; 100 mg, Day 28, 100 mg QD Part 2, read-out: Trough Plasma Concentration, Median",19.9 ng/mL
same,concentration at 56 day,"[1]; 100 mg, 100 mg QD Part 1, read-out: Trough Plasma Concentration, Geometric Mean",72.1 ng/mL
same,concentration at 56 day,[1]; [6],258 ng/mL
same,concentration at 56 day,[1]; [7],30.4 ng/mL
same,concentration at 56 day,"[1]; 100 mg, 100 mg QD Part 2, read-out: Trough Plasma Concentration, Geometric Mean",20.3 ng/mL
same,concentration at 56 day,[1]; [8],23.2 ng/mL
same,concentration at 56 day,[1]; [9],20 ng/mL
same,AUC(0-t),"[1]; 100 mg, steady state Day 28, 100 mg QD Part 1, read-out: AUC0-24, Geo Mean",10400 ng·h/mL
same,AUC(0-t),"[1]; 100 mg, steady state Day 28, 100 mg QD Part 1, read-out: AUC0-24, Mean (SD)",14900 ng·h/mL
same,AUC(0-t),"[1]; 100 mg, steady state Day 28, 100 mg QD Part 1, read-out: AUC0-24, Median",15000 ng·h/mL
same,Cmax,"[1]; 100 mg, steady state Day 28, 100 mg QD Part 1, read-out: Cmax, Geo Mean",1370 ng/mL
same,Cmax,"[1]; 100 mg, steady state Day 28, 100 mg QD Part 1, read-out: Cmax, Mean (SD)",1620 ng/mL
same,Cmax,"[1]; 100 mg, steady state Day 28, 100 mg QD Part 1, read-out: Cmax, Median",1590 ng/mL
same,AUC(0-t),"[1]; 100 mg, steady state Day 28, 100 mg QD Part 2, read-out: AUC0-24, Geo Mean",6920 ng·h/mL
same,AUC(0-t),"[1]; 100 mg, steady state Day 28, 100 mg QD Part 2, read-out: AUC0-24, Mean (SD)",7480 ng·h/mL
same,AUC(0-t),"[1]; 100 mg, steady state Day 28, 100 mg QD Part 2, read-out: AUC0-24, Median",7090 ng·h/mL
same,Cmax,"[1]; 100 mg, steady state Day 28, 100 mg QD Part 2, read-out: Cmax, Geo Mean",1000 ng/mL
same,Cmax,"[1]; 100 mg, steady state Day 28, 100 mg QD Part 2, read-out: Cmax, Mean (SD)",1360 ng/mL
same,Cmax,"[1]; 100 mg, steady state Day 28, 100 mg QD Part 2, read-out: Cmax, Median",1250 ng/mL
same,Tmax,"[1]; steady state Day 28, 12.5 mg QD",1.08 h
same,Tmax,"[1]; steady state Day 28, 50 mg QD",2.01 h
same,"Cmax, Geo Mean",[1]; [10],140 ng/mL
same,"Cmax, Mean (SD)",[1]; [10],142 (28.3) ng/ml
same,"Cmax, Mean (SD)","[1]; steady state Day 28, 25 mg BID",361 (175) ng/ml
same,"Tmax, Median","[1]; steady state Day 28, 100 mg QD Part 1",1.02 h
same,"Tmax, Median","[1]; steady state Day 28, 100 mg QD Part 2",1 h
same,"Clinical laboratory parameters (chemistry, hematology, coagulation, urinalysis), change from baseline to Week 8",hypertensive subjects; Part 1 or Part 2,no meaningful changes
same,Serum creatinine levels compared with placebo,"hypertensive subjects; active treatment cohorts, Parts 1 and 2",increased
